Data as given in US8835421B2, “Benzimidazole linked pyrrolo[2,1-c[1,4] benzodiazepine hybrids as potential antitumour agents and process for the preparation thereof” (Council of Scientific and Industrial Research, priority 2008, dated 2014).

How the values were obtained:
[1] = tested on: calf thymus DNA (CT-DNA); test: Thermal denaturation studies with duplex-form calf thymus DNA; type: binding; details: [PBD]:[DNA] 1:5, CT-DNA 100 μM, ligand 20 μM, sodium phosphate buffer pH 7.00; for ΔTm after incubation at 37° C. for 0 h: 0 h incubation at 37° C.; for ΔTm after incubation at 37° C. for 18 h: 18 h incubation at 37° C.
Description: Compounds have been subjected to thermal denaturation studies with duplex-form calf thymus DNA (CT-DNA) using an modification of a reported procedure (Newman, M. S. Carcinog-compr. Surv. 1976, 1, 203; (b) Hecht, S. S.; Loy, M.; Hoffman, Carcinog-compr. Surv. 1976, 1, 325). Working solutions in aqueous buffer (10 mM NaH2PO4/Na2HPO4, 1 mM Na2EDTA, pH 7.00+0.01) containing CT-DNA (100 μm in phosphate) and the PBD (20 μm) have been prepared by addition of concentrated PBD solutions in DMSO to obtain a fixed [PBD]/[DNA] molar ratio of 1:5. The DNA-PBD solutions have been incubated at 37° C. for 0 and 18 h prior to analysis. Samples have been, monitored at 260 nm using a Beckman DU-800 spectrophotometer fitted with high performance temperature controller, and heated at 1° C. min^−1 in the 40-110° C. range. DNA helix→coil transition temperatures (Tm) have been obtained from the maxima in the d(A260)/d T derivative plots. Drug-induced alterations in DNA melting behavior are given by: ΔTm=Tm(DNA+PBD)−Tm(DNA alone), where the Tm value for the PBD-free CT-DNA is 69.1±0.01.
The DNA binding activity for these novel C8-linked benzimidazole-PBD hybrids has been examined by thermal denaturation studies using calf thymus (CT) DNA. […] The data for the compounds 8a-g, 11a-d and 14 is included in Table 1 for comparison.

[2] = tested on: Non-small-cell-lung cancer cell lines; test: NCI in vitro anticancer screen (SRB, 48 h), non-small-cell lung; type: cell-based, human; details: average of six to nine cell lines; for GI50: Homo sapiens, read-out: Log10 GI50 (converted)
Description: (§1) Anticancer activity: In vitro biological activity studies were carried out at the National Cancer Institute (USA).
(§2) The compounds were evaluated for in vitro anticancer activity against sixty human tumour cells derived from nine cancer types (leukemia, non-small-cell lung, colon, CNS, melanoma, ovarian, prostate, and breast cancer) as shown in Table 3. For each compound, dose response curves for each cell line were measured at a minimum of five concentrations at 10 fold dilutions. A protocol of 48 h continuous drug exposure was used and a sulforhodamine B (SRB) protein assay was used to estimate cell viability or growth. The concentration causing 50% cell growth inhibition (GI50), total cell growth inhibition (TGI 0% growth) and 50% cell death (LC50, −50% growth) compared with the control was calculated. The mean graph midpoint values of log10 TGI and log10 LC50 as well as log10 GI50 for 8c, 8e, 11a, 11c and 14 are listed in Table 2.
(§3) Each cancer type represents the average of six to nine different cancer cell lines.

[3] = tested on: Prostate cancer cell lines; test: NCI in vitro anticancer screen (SRB, 48 h), prostate; type: cell-based, human; details: average of six to nine cell lines; for GI50: Homo sapiens, read-out: Log10 GI50 (converted)
Description: as §1, §2, §3

[4] = tested on: sixty human tumour cells; test: NCI in vitro anticancer screen (SRB, 48 h), mean graph midpoints over all cell lines; type: cell-based; details: 48 h continuous drug exposure, SRB assay; for Log10LC50 mean graph midpoint (MG_MID): 50% cell death; for Log10GI50 mean graph midpoint (MG_MID): 50% cell growth inhibition; for Log10TGI mean graph midpoint (MG_MID): total cell growth inhibition
Description: as §1, §2

[5] = tested on: Melanoma cancer cell lines; test: NCI in vitro anticancer screen (SRB, 48 h), melanoma; type: cell-based, human; details: average of six to nine cell lines; for GI50: Homo sapiens, read-out: Log10 GI50 (converted)
Description: as §1, §2, §3

[6] = tested on: Ovarian cancer cell lines; test: NCI in vitro anticancer screen (SRB, 48 h), ovarian; type: cell-based, human; details: average of six to nine cell lines; for GI50: Homo sapiens, read-out: Log10 GI50 (converted)
Description: as §1, §2, §3

[7] = tested on: CNS cancer cell lines; test: NCI in vitro anticancer screen (SRB, 48 h), CNS; type: cell-based, human; details: average of six to nine cell lines; for GI50: Homo sapiens, read-out: Log10 GI50 (converted)
Description: as §1, §2, §3

[8] = tested on: Leukemia cancer cell lines; test: NCI in vitro anticancer screen (SRB, 48 h), leukemia; type: cell-based, human; details: average of six to nine cell lines; for GI50: Homo sapiens, read-out: Log10 GI50 (converted)
Description: as §1, §2, §3

[9] = tested on: Breast cancer cell lines; test: NCI in vitro anticancer screen (SRB, 48 h), breast; type: cell-based, human; details: average of six to nine cell lines; for GI50: Homo sapiens, read-out: Log10 GI50 (converted)
Description: as §1, §2, §3

[10] = tested on: Renal cancer cell lines; test: NCI in vitro anticancer screen (SRB, 48 h), renal; type: cell-based, human; details: average of six to nine cell lines; for GI50: Homo sapiens, read-out: Log10 GI50 (converted)
Description: as §1, §2, §3

[11] = tested on: Colon cancer cell lines; test: NCI in vitro anticancer screen (SRB, 48 h), colon; type: cell-based, human; details: average of six to nine cell lines; for GI50: Homo sapiens, read-out: Log10 GI50 (converted)
Description: as §1, §2, §3

SMILES | ΔTm after incubation at 37° C. for 0 h [1] [°C] | ΔTm after incubation at 37° C. for 18 h [1] [°C] | GI50 [2] [nM] | GI50 [3] [nM] | Log10LC50 mean graph midpoint (MG_MID) [4] | Log10GI50 mean graph midpoint (MG_MID) [4] | Log10TGI mean graph midpoint (MG_MID) [4] | GI50 [5] [nM] | GI50 [6] [nM] | GI50 [7] [nM] | GI50 [8] [nM] | GI50 [9] [nM] | GI50 [10] [nM] | GI50 [11] [nM] | other results
CCOC(=O)c1ccc2nc(-c3ccc(OCc4ccccc4)cc3)n(CCCCCOc3cc4c(cc3OC)C(=O)N3CCC[C@H]3C=N4)c2c1 [Compound 11d, Ethyl-2-[4-(benzyloxy)phenyl]-[(5-(11aS)-7-methoxy-1,2,3,11a-tetrahy-dro-5H-pyrrolo[2,1-c][1,4]benzodiazepin-5-one-8-yl)oxypentyl]-2-benzimidazol-6-carboxylate] | 2.0 | 3.0 |  |  |  |  |  |  |  |  |  |  |  |  | 
COc1cc2c(cc1OCCCCCn1c(-c3cccs3)nc3ccccc31)N=C[C@@H]1CCCN1C2=O [Compound 8f, 7-Methoxy-8-{5-[2-(2-thienyl)-1H-benzimidazol-1-yl]pentyl}oxy-(11aS)-1,2,3,11a-tetrahydro-5H-pyrrolo[2,1-c][1,4]benzodiazepin-5-one] | 6.1 | 6.1 |  |  |  |  |  |  |  |  |  |  |  |  | 
COc1cc2c(cc1O)N=CC1CCCN1C2=O (centres unmarked) [DC-81, reference compound] | 0.3 | 0.7 |  |  |  |  |  |  |  |  |  |  |  |  | 
COc1cc2c(cc1OCCCCCn1c(-c3ccc(OCc4ccccc4)cc3)nc3ccc(N4CCOCC4)cc31)N=C[C@@H]1CCCN1C2=O [Compound 11c, 7-Methoxy-8-{5-[2-[(4-(benzyloxy)phenyl)-6-morpholino]benzimidazol-1-yl]pentyl}oxy-(11aS)-1,2,3,11a-tetrahydro-5H-pyrrolo[2,1-c][1,4]benzodiazepin-5-one] | 2.9 | 3.2 | 1950 | 2190 | −4.24 | −5.83 | −5.00 | 1550 | 2190 | 2690 | 603 | 1550 | 759 | 2290 | 
COc1cc2c(cc1OCCCCn1c(-c3ccco3)nc3ccccc31)N=C[C@@H]1CCCN1C2=O [Compound 8b, 7-Methoxy-8-{4-[2-(2-furyl)-1H-benzimidazol-1-yl]butyl}oxy-(11aS)-1,2,3,11a-tetrahydro-5H-pyrrolo[2,1-c][1,4]benzodiazepin-5-one] | 0.1 | 1.0 |  |  |  |  |  |  |  |  |  |  |  |  | 
COc1cc2c(cc1OCCCn1c(-c3cccs3)nc3ccccc31)N=C[C@@H]1CCCN1C2=O [Compound 8d, 7-Methoxy-8-{3-[2-(2-thienyl)-1H-benzimidazol-1-yl]propyl}oxy-(11aS)-1,2,3,11a-tetrahydro-5H-pyrrolo[2,1-c][1,4]benzodiazepin-5-one] | 3.9 | 5.1 |  |  |  |  |  |  |  |  |  |  |  |  | 
COC(=O)c1ccc2nc(-c3cn(C)c4ccccc34)n(CCCCOc3cc4c(cc3OC)C(=O)N3CCC[C@H]3C=N4)c2c1 [Compound 14, Methyl-1-[(4-(11aS)-7-methoxy-1,2,3,11a-tetrahydro-5H-pyrrolo[2,1-c][1,4]benzodiazepin-5-one-8-yl)oxybutyl]-2-(1-methyl-3-indolyl)benzimidazol-6-carboxylate] | 1.5 | 2.0 |  |  | −4.92 | −6.19 | −5.65 |  |  |  |  |  |  |  | Log10 GI50 [2]: −6.08 mol/L; Log10 GI50 [3]: −6.62 mol/L; Log10 GI50 [5]: −6.27 mol/L; Log10 GI50 [6]: −6.04 mol/L; Log10 GI50 [7]: −6.00 mol/L; Log10 GI50 [8]: −6.88 mol/L; Log10 GI50 [9]: −6.14 mol/L; Log10 GI50 [10]: −6.10 mol/L; Log10 GI50 [11]: −6.04 mol/L
COc1cc2c(cc1OCCCn1c(-c3cccn3C)nc3ccccc31)N=C[C@@H]1CCCN1C2=O [Compound 8g, 7-Methoxy-8-{3-[2-(1-Methyl-2-pyrrolyl)-1H-benzimidazol-1,4]propyl}-oxy-(11aS)-1,2,3,11a-tetrahydro-5H-pyrrolo[2,1-c][1,4]benzodiazepin-5-one] | 2.0 | 3.1 |  |  |  |  |  |  |  |  |  |  |  |  | 
COc1cc2c(cc1OCCCCCn1c(-c3ccccn3)nc3ccccc31)N=C[C@@H]1CCCN1C2=O [Compound 11b, 7-Methoxy-8-{5-[2-(2-pyridyl)-1H-benzimidazol-1-yl]pentyl}oxy-(11aS)-1,2,3,11a-tetrahydro-5H-pyrrolo[2,1-c][1,4]benzodiazepin-5-one] | 1.0 | 1.2 |  |  |  |  |  |  |  |  |  |  |  |  | 
COc1cc2c(cc1OCCCn1c(-c3ccco3)nc3ccccc31)N=C[C@@H]1CCCN1C2=O [Compound 8a, 7-Methoxy-8-{3-[2-(2-furyl)-1H-benzimidazol-1-yl]propyl}oxy-(11aS)-1,2,3,11a-tetrahydro-5H-pyrrolo[2,1-c][1,4]benzodiazepin-5-one] | 5.1 | 6.1 |  |  |  |  |  |  |  |  |  |  |  |  | 
COc1cc2c(cc1OCCCn1c(-c3ccccn3)nc3ccccc31)N=C[C@@H]1CCCN1C2=O [Compound 11a, 7-Methoxy-8-{3-[2-(2-pyridyl)-1H-benzimidazol-1-yl]propyl}oxy-(11aS)-1,2,3,11a-tetrahydro-5H-pyrrolo[2,1-c][1,4]benzodiazepin-5-one] | 3.0 | 4.2 | 1580 | 1350 | −4.42 | −5.75 | −5.14 | 2190 | 1620 | 2510 | 3090 | 1050 | 1410 | 1910 | 
COc1cc2c(cc1OCCCCn1c(-c3cccs3)nc3ccccc31)N=C[C@@H]1CCCN1C2=O [Compound 8e, 7-Methoxy-8-{4-[2-(2-thienyl)-1H-benzimidazol-1-yl]butyl}oxy-(11aS)-1,2,3,11a-tetrahydro-5H-pyrrolo[2,1-c][1,4]benzodiazepin-5-one] | 0.1 | 1.0 | 2090 | 1320 | −4.51 | −5.81 | −5.18 | 1580 | 2000 | 1580 | 1000 | 912 | 1580 | 1950 | 
COc1cc2c(cc1OCCCCCn1c(-c3ccco3)nc3ccccc31)N=C[C@@H]1CCCN1C2=O [Compound 8c, 7-Methoxy-8-{5-[2-(2-furyl)-1H-benzimidazol-1-yl]pentyl}oxy-(11aS)-1,2,3,11a-tetrahydro-5H-pyrrolo[2,1-c][1,4]benzodiazepin-5-one] | 5.1 | 7.0 | < 12 | < 22.9 | −4.60 | −7.91 | −6.89 | < 12 | < 10 | < 10 | < 10 | < 16.2 | < 12 | < 12 | 
